According to patent publication US12558342B2, “2-[2-({12,12-dimethyl-4-oxo-6-phenyl-3,11-dioxatricyclo[8.4.0.0,2,7]tetradeca-1,5,7,9-tetraen-8-yl}oxy)acetamido]benzamide and derivatives as inhibitor of clock:bmal1 interaction for the treatment of circadian rhythm diseases and disorders” (KOC UNIVERSITESI, priority 2019, dated 2026):

Key:
[1] = molecular target: T1, CLOCK:BMAL1 interaction (Homo sapiens, UniProt O15516); experiment: Mammalian two-hybrid assay; type: cell-based; settings: HEK293T
T1 construct: expressed in transfected cells; host or cells: HEK293T
T1 sequence (O15516 1-846): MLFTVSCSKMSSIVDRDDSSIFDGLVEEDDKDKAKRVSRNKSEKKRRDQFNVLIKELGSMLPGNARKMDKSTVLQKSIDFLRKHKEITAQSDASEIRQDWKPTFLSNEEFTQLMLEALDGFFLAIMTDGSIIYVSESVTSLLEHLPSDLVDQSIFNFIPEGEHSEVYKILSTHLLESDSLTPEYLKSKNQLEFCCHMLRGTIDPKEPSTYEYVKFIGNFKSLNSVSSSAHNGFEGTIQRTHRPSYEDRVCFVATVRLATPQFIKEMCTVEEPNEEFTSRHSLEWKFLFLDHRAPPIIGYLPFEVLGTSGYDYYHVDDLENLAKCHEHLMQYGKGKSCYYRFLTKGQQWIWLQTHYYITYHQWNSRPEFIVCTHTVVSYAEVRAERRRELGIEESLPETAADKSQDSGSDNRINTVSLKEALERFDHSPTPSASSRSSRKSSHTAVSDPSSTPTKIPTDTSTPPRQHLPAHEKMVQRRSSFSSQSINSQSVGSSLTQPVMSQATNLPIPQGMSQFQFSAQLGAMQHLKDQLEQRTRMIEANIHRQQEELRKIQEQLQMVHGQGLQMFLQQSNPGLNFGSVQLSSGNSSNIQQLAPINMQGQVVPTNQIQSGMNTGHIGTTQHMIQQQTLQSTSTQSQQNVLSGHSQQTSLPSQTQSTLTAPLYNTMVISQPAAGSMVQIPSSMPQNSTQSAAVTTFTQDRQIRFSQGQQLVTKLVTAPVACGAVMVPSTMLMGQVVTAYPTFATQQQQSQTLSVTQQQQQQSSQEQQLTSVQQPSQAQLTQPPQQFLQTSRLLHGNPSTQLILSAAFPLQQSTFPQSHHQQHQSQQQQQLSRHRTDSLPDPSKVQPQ
Method: The procedure was carried out according to Checkmate-Promega's protocol. Samples were examined in triplicate sets in a 96-well plate. HEK293T cells with the density of 4×10^4 cell/well were transfected with 50 ng of pG5-luc, 50 ng of pACT-mBmal1, 50 ng of pBind-hsClock plasmids and 0.5 ng of pRL-TK for normalization. Following the transfection, the cells were treated with different concentrations of small molecules. Control cells were treated with 0.5% vehicle (DMSO).
Ultimately, luminescence was measured using Dual-Luciferase Reporter Assay System (Promega) with Fluoroskan Ascent FL plate reader.

[2] = molecular target: T2, CLOCK (Homo sapiens, UniProt O15516); experiment: Pull-down assay with biotinylated CLK8, lysate of HEK293T cells overexpressing CLOCK and BMAL1; type: binding; design: expressed in transfected cells; host or cells: HEK293T; settings: 200 μM competitor
T2 sequence (O15516 1-846): T1 sequence (O15516 1-846)
Method: HEK293T cells were transiently transfected with tag-free hsClock and mBmal1. After 48 hours of transfection, cells were harvested and whole cell lysate was prepared with ice-cold lysis buffer (50 mM Tris-HCl pH 7.4, 2 mM EDTA, 1 mM MgCl2, 0.2% NP-40, 1 mM sodium orthovanadate, 1 mM sodium fluoride and protease inhibitor cocktail) followed by centrifugation at 7000×g at 4° C. for 10 minutes. Lysate was diluted with ice-cold 2× binding buffer (100 mM Tris-HCl pH 7.4, 300 mM NaCl, 0.2% NP-40, 2 mM sodium orthovanadate, 2 mM sodium fluoride, and protease inhibitor cocktail) 27. The lysate was divided into three fractions to be treated with either DMSO, or 20 μM of bitoinylated-CLK8 (bait) with or without 200 μM CLK8 (competitor). The lysate-compound samples were incubated and mixed continuously at 4° C. for 1 hour. After equilibrating NeutroAvidin Agarose resin (Thermo Scientific) with lysis buffer, the lysate-compound mixture and NeutroAvidin Agarose resin were incubated and mixed continuously at 4° C. overnight. The beads were washed four times with 1× binding buffer. To elute the bound proteins Laemmli buffer was added and samples were heated at 95° C. for 7 minutes. The pull-down precipitates were subjected to SDS-PAGE and transferred to a PVDF membrane (Millipore). […]

CC1(C)CCc2c(cc(OCC(=O)Nc3ccccc3C(N)=O)c3c(-c4ccccc4)cc(=O)oc23)O1 [CLK8, 2-[2-({12,12-dimethyl-4-oxo-6-phenyl-3,11-dioxatricyclo [8.4.0.0,2,7]tetradeca-1,5,7,9-tetraen-8-yl}oxy)acetamido] benzamide]
interaction between CLOCK and BMAL1 (two-hybrid) [1]: reduces the interaction between CLOCK and BMAL1
binding to CLOCK (competition with bait) [2]: specifically binds to CLOCK
